Reference: patent US20250290117A1, “MOLECULAR PHENOTYPIC ANTIMICROBIAL SUSCEPTIBILITY TESTING” (priority 2024, published 2025)

What was measured:
[1] = system: P. aeruginosa; assay: Molecular phenotypic antimicrobial susceptibility test with direct PCR (no extraction DNA purification step); format: cell-based, Pseudomonas aeruginosa; settings: for Ct at Sensitive Breakpoint: P. aeruginosa isolate MRSN1938, Ct at control (average) 12.031; for Molecular Antimicrobial Susceptibility Result: P. aeruginosa isolate MRSN1938, at sensitive breakpoint
Procedure: (§1) Detection of Molecular Phenotypic Antimicrobial Susceptibility. Disclosed herein are the methods for the detection of phenotypic antimicrobial susceptibility via molecular methods. The present invention describes how a specimen 100 with a known microbial load is incubated and then exposed to a panel of antimicrobial agents to determine sensitivity (prevention of growth) or resistance (allowance of growth) to the specific antimicrobial agents tested utilizing molecular methods.
(§2) Sample Collection. Specimens 100 are collected from patients using sterile collection processes that are employed in routine clinical care. Specimens are transported to the testing facility in boric acid preservative. Specimens 100 are subsequently divided into a first sample 104 and a second sample 108.
(§3) Preparation of the Specimens for Testing. The specimens 100 are put through a pathogen identification process using PCR technology (e.g., using the first sample 104). The process for pathogen isolation includes steps of harvesting the pathogen (e.g., via centrifugation), isolating pathogen DNA via a DNA isolation and/or purification kit, and performing PCR on the pathogen DNA via PCR components (e.g., primers, enzymes, buffers) as would be known to the skilled artisan. Simultaneously, an additional aliquot of the same specimen (e.g., the second sample 108) is placed with liquid culture media and incubated for 4-6 hours. This aliquot is used for antimicrobial susceptibility testing if indicated based on the pathogen detection results. After pathogen identification is completed and if more than 10,000 cells/mL of bacteria (e.g., eligible bacteria) are detected in the source specimen, the second sample 108 then enters the antimicrobial susceptibility phase of testing. Specimens 100 with lower pathogen loads could also be utilized in the antibiotic susceptibility phase of testing with or without a longer incubation period.
(§4) Preparation of Antimicrobial Susceptibility Testing Plates. Antimicrobial solutions are prepared at known concentrations. The specific antimicrobials and their concentrations are selected based on the pathogen of interest and the described antimicrobial resistance breakpoints for that specimen pathogen and antimicrobial combination. These antimicrobials have been selected based on those commonly utilized by healthcare providers in routine clinical care for the specific type of suspected infection. The number and types of antimicrobials utilized can be customized based on the infection source, pathogen detected, patient-specific factors such as allergies or other health conditions (e.g., chronic kidney disease or concurrent medication use), or healthcare provider preferences such as antimicrobial availability or cost.
(§5) The antimicrobial solutions are prepared in liquid culture media (such as Muller Hinton Broth) to achieve the desired antimicrobial concentration and are then stored at −80° C. until use. For a given specimen, each antimicrobial is tested at a single or multiple antimicrobial concentration(s) which is its established breakpoints for sensitivity. The antimicrobial solutions are prepared and plated out for each specific pathogen. This allows ease of use on the day of testing after defrosting the plate 112. Table 1, which illustrates the results of molecular phenotypic antimicrobial susceptibility testing when more than one organism is present in the source specimen, provides an example of an antimicrobial plate 112 prepared for this purpose. Of note, control wells containing only culture media are present on all plates 112. This allows for evaluation of pathogen load when no antimicrobial is present.
(§6) Specimen Exposure to Antimicrobial Agents. The 1 mL aliquot of the specimen 100 previously mixed with culture media and incubated is obtained. Using optical density measurements as a guide, the specimen 100 is diluted to 0.5 McFarland. […]

[2] = system: P. aeruginosa; assay: Traditional culture-based antimicrobial susceptibility test; format: cell-based, Pseudomonas aeruginosa; settings: P. aeruginosa isolate MRSN1938
Procedure: (§7) Table 5 illustrates the results of an example antimicrobial agent susceptibility test of the current application versus a traditional culture-based antimicrobial agent susceptibility test for multiple specimens with different pathogens, in accordance with one or more embodiments of the disclosure. These specimens were tested with direct PCR (e.g., no extraction DNA purification step prior to PCR). As in Tables 1, 2, and 3, the results of the test of the current application are similar to the results from the traditional test.
(§8) Result Reporting to Healthcare Providers. The results from the antimicrobial exposure are reported to the ordering healthcare provider. This information can be utilized by the healthcare provider when selecting an antimicrobial regimen for their individual patient based on these individual specimen results and patient specific factors. […] The current standard of care for antimicrobial susceptibility testing involves the growth, isolation, and exposure of pathogens to antimicrobials. This traditional culture and sensitivity process can take multiple days to obtain results, limiting the ability of healthcare providers to receive timely results to make actionable changes in patient care or management. Healthcare providers desire a method to obtain antimicrobial susceptibility results with quicker turn-around-time. This application discloses a molecular-based phenotypic antimicrobial susceptibility method which involves pathogen exposure to a panel of antimicrobial agents at their specified minimum inhibitory concentration breakpoints for sensitivity. This method allows for more timely antimicrobial susceptibility results.

[3] = system: Staphylococcus epidermidis; assay: Molecular phenotypic antimicrobial susceptibility test (semi-quantitative PCR after antimicrobial exposure; extraction/DNA purification prior to PCR); format: cell-based
Procedure: as §1, §2, §3, §4, §5, §6

[4] = system: S. aureus; assay: Traditional culture-based antimicrobial susceptibility test; format: cell-based, Staphylococcus aureus; settings: S. aureus isolate NR-46412 HIP13170
Procedure: as §7, §8

[5] = S. epidermidis isolate 1, Ct at control (average) 10.611
[6] = S. epidermidis isolate 1, at sensitive breakpoint
[7] = S. epidermidis isolate 2, Ct at control (average) 11.861
[8] = S. epidermidis isolate 2, at sensitive breakpoint
[9] = S. epidermidis isolate 3, Ct at control (average) 12.941
[10] = S. epidermidis isolate 3, at sensitive breakpoint
[11] = S. epidermidis isolate 4, Ct at control (average) 11.861
[12] = S. epidermidis isolate 4, at sensitive breakpoint
[13] = S. epidermidis isolate 5, Ct at control (average) 12.941
[14] = S. epidermidis isolate 5, at sensitive breakpoint

Compound: CO/N=C(\C(=O)N[C@@H]1C(=O)N2C(C(=O)[O-])=C(C[N+]3(C)CCCC3)CS[C@H]12)c1csc(N)n1 [Cefepime]
- Ct at Sensitive Breakpoint [1]: 13.373
- Molecular Antimicrobial Susceptibility Result [1]: Sensitive (Antimicrobial wells with pathogen load detected below the control wells (typically >2 cycle thresholds later) may be reported as Sensitive)
- Traditional Culture Result [2]: Sensitive
- Ct at Sensitive Breakpoint [3, 5]: 11.785
- Molecular Antimicrobial Susceptibility Result [3, 6]: Resistant
- Ct at Sensitive Breakpoint [3, 7]: 8.669
- Molecular Antimicrobial Susceptibility Result [3, 8]: Resistant
- Ct at Sensitive Breakpoint [3, 9]: 8.646
- Molecular Antimicrobial Susceptibility Result [3, 10]: Resistant
- Ct at Sensitive Breakpoint [3, 11]: 8.418
- Molecular Antimicrobial Susceptibility Result [3, 12]: Resistant
- Ct at Sensitive Breakpoint [3, 13]: 8.474
- Molecular Antimicrobial Susceptibility Result [3, 14]: Resistant

Compound: CO[C@@]1(NC(=O)Cc2cccs2)C(=O)N2C(C(=O)O)=C(COC(N)=O)CS[C@@H]21 [Cefoxitin]
- Traditional Culture Result [4]: Resistant

Compound: O=C(O)c1cn(C2CC2)c2cc(N3CCNCC3)c(F)cc2c1=O [Ciprofloxacin]
- Traditional Culture Result [4]: Resistant
- Ct at Sensitive Breakpoint [1]: 12.239
- Molecular Antimicrobial Susceptibility Result [1]: Resistant
- Traditional Culture Result [2]: Resistant

Compound: C[C@H]1COc2c(N3CCN(C)CC3)c(F)cc3c(=O)c(C(=O)O)cn1c23 [Levofloxacin]
- Ct at Sensitive Breakpoint [1]: 12.853
- Molecular Antimicrobial Susceptibility Result [1]: Resistant

Compound: C[C@@H](O)[C@H]1C(=O)N2C(C(=O)O)=C(S[C@@H]3CN[C@H](C(=O)N(C)C)C3)[C@H](C)[C@H]12 [Meropenem]
- Ct at Sensitive Breakpoint [1]: 12.404
- Molecular Antimicrobial Susceptibility Result [1]: Resistant
- Traditional Culture Result [2]: Resistant*

Compound: CN[C@H](CC(C)C)C(=O)N[C@H]1C(=O)N[C@@H](CC(N)=O)C(=O)N[C@H]2C(=O)N[C@H]3C(=O)N[C@H](C(=O)N[C@H](C(=O)O)c4cc(O)cc(O)c4-c4cc3ccc4O)[C@H](O)c3ccc(c(Cl)c3)Oc3cc2cc(c3O[C@@H]2O[C@H](CO)[C@@H](O)[C@H](O)[C@H]2O[C@H]2C[C@](C)(N)[C@H](O)[C@H](C)O2)Oc2ccc(cc2Cl)[C@H]1O [Vancomycin]
- Traditional Culture Result [4]: Resistant
- Ct at Sensitive Breakpoint [3, 5]: 12.950
- Molecular Antimicrobial Susceptibility Result [3, 6]: Sensitive (Antimicrobial wells with pathogen load detected below the control wells (typically >2 cycle thresholds later) may be reported as Sensitive)
- Ct at Sensitive Breakpoint [3, 7]: 18.235
- Molecular Antimicrobial Susceptibility Result [3, 8]: Sensitive (Antimicrobial wells with pathogen load detected below the control wells (typically >2 cycle thresholds later) may be reported as Sensitive)
- Ct at Sensitive Breakpoint [3, 9]: 18.173
- Molecular Antimicrobial Susceptibility Result [3, 10]: Sensitive (Antimicrobial wells with pathogen load detected below the control wells (typically >2 cycle thresholds later) may be reported as Sensitive)
- Ct at Sensitive Breakpoint [3, 11]: 20.001
- Molecular Antimicrobial Susceptibility Result [3, 12]: Sensitive (Antimicrobial wells with pathogen load detected below the control wells (typically >2 cycle thresholds later) may be reported as Sensitive)
- Ct at Sensitive Breakpoint [3, 13]: 8.719
- Molecular Antimicrobial Susceptibility Result [3, 14]: Resistant

Compound: Gentamicin
- Traditional Culture Result [4]: Resistant

Compound: Piperacillin/Tazobactam
- Ct at Sensitive Breakpoint [1]: 13.375
- Molecular Antimicrobial Susceptibility Result [1]: Sensitive (Antimicrobial wells with pathogen load detected below the control wells (typically >2 cycle thresholds later) may be reported as Sensitive)
- Traditional Culture Result [2]: Sensitive

Compound: Trimethoprim/Sulfamethoxazole [TMP/SMX]
- Traditional Culture Result [4]: Sensitive
- Ct at Sensitive Breakpoint [3, 5]: 10.79
- Molecular Antimicrobial Susceptibility Result [3, 6]: Resistant
- Ct at Sensitive Breakpoint [3, 7]: 10.503
- Molecular Antimicrobial Susceptibility Result [3, 8]: Resistant
- Ct at Sensitive Breakpoint [3, 9]: 11.341
- Molecular Antimicrobial Susceptibility Result [3, 10]: Resistant
- Ct at Sensitive Breakpoint [3, 11]: 10.970
- Molecular Antimicrobial Susceptibility Result [3, 12]: Resistant
- Ct at Sensitive Breakpoint [3, 13]: 12.620
- Molecular Antimicrobial Susceptibility Result [3, 14]: Resistant
